Experimental data taken from paper PMC8224398, “SARS-CoV-2 mutations in MHC-I-restricted epitopes evade CD8^+ T cell responses” (Science Immunology, 2021).

System: CD8+ T cells in PBMCs of COVID-19 patients
Type: cell-based, human

YFQPRTFLL [YLQ mutant]
wild type tetramer-positive CD8+ T cells after expansion with mutant versus wild type peptide (in words): reduced numbers of YLQ tetramer positive cells
